Measurements: US4277465A, “Adjuvant for promoting absorption of therapeutically active substances through the digestive tract” (Kyoto Yakuhin Kogyo Kabushiki Kaisha, priority 1978, dated 1981)

Experiments:
[1] = Rectal insulin suppositories (Recipes 21-34), glucose response; type: in vivo; details: rectal suppository 6 I.U. insulin
Method: |Enamine derivative (I) | As indicated in | Table 12 […] The above components were used to prepare rectal suppositories in accordance with established pharmaceutical practice. The suppositories were administered to rabbits and dogs by rectal route. […] The test was conducted by the glucose oxidase method.

[2] = Rectal insulin suppositories (Recipes 35-41), glucose response; type: in vivo; details: rabbit 2.5-3kg; rectal suppository 6 I.U. insulin; enamine derivative 0.025g (5%)
From the text: These suppositories were rectally administered to rabbits (R, 2.5-3kg) and dogs (D, 12-13kg).

## CCOC(=O)C=C(C)NC(C)C(=O)[O-].[Na+] (racemic) [Compound 18, N-(1-Methyl-2-ethoxycarbonylvinyl)-DL-alanine sodium salt]
[1]; rabbit, enamine derivative 1%
  Time course: Lowest level: 45 to 60 min
  Time course: Onset: 30 min
  Time course: Return to pre-medication level: 180 min

## CCOC(=O)C=C(C)NC(C(=O)[O-])c1ccccc1.[Na+] (racemic) [Compound 24, N-(1-Methyl-2-ethoxycarbonylvinyl)-DL-phenylglycine sodium salt]
[1]; rabbit, enamine derivative 1%
  Time course: Lowest level: 30 to 60 min
  Time course: Onset: 15 min
  Time course: Return to pre-medication level: 180 min

## CCOC(=O)C(C)OC(=O)C=C(C)NC(C)C(=O)[O-].[Na+] (racemic) [Compound 33, N-[1-Methyl-2-(1-ethoxycarbonyl-ethoxycarbonyl)vinyl]-DL-alanine sodium salt]
[2]
  Blood glucose response (6 I.U.): 45-55%
  Time course: Lowest level: 45 to 60 min
  Time course: Onset: 15 min
  Time course: Return to pre-medication level: 150 min

## CCOC(=O)C=C(C)N[C@@H](C)C(=O)[O-].[Na+] [Compound 19, N-(1-Methyl-2-ethoxycarbonylvinyl)-L-alanine sodium salt]
[1]; rabbit, enamine derivative 1%
  Time course: Lowest level: 45 to 60 min
  Time course: Onset: 30 min
  Time course: Return to pre-medication level: 180 min

## CCOC(=O)C=C(C)N[C@@H](CC(C)C)C(=O)[O-].[Na+] [Compound 21, N-(1-Methyl-2-ethoxycarbonylvinyl)-L-leucine sodium salt]
[1]; dog, enamine derivative 1%
  Blood glucose response (6 I.U.): 35-45%
  Time course: Lowest level: 60 to 90 min
  Time course: Onset: 30 min
  Time course: Return to pre-medication level: 180 min

## CCOC(=O)C=C(C)N[C@@H](Cc1ccccc1)C(=O)[O-].[Na+] [Compound 25, N-(1-Methyl-2-ethoxycarbonylvinyl)-L-phenylalanine sodium salt]
[1]; rabbit, enamine derivative 1%
  Time course: Lowest level: 45 to 90 min
  Time course: Onset: 30 min
  Time course: Return to pre-medication level: 180 min

## CCOC(=O)C=C(C)N[C@H](C(=O)[O-])C(C)C.[Na+] [Compound 26, N-(1-Methyl-2-ethoxycarbonylvinyl)-L-valine sodium salt]
[1]; rabbit, enamine derivative 10%
  Time course: Lowest level: 60 to 90 min
  Time course: Onset: 30 min
  Time course: Return to pre-medication level: 180 min

## CCOC(=O)C=C(C)N[C@@H](Cc1c[nH]cn1)C(=O)[O-].[Na+] [Compound 28, α-N-(1-Methyl-2-ethoxycarbonylvinyl)-L-histidine sodium salt]
[1]; rabbit, enamine derivative 10%
  Blood glucose response (6 I.U.): 30%
  Time course: Lowest level: 60 to 90 min
  Time course: Onset: 30 min
  Time course: Return to pre-medication level: 180 min

## CCOC(=O)C=C(C)NCCCCCCCCCCC(=O)[O-].[Na+] [Compound 30, N-(1-Methyl-2-ethoxycarbonylvinyl)-11-aminoundecanoic acid sodium salt]
[1]; rabbit, enamine derivative 10%
  Time course: Lowest level: 60 to 90 min
  Time course: Onset: 30 min
  Time course: Return to pre-medication level: 180 min

## CC(=CC(=O)OC(C)C(=O)O)N[C@@H](CCCNC(=N)N)C(=O)O (stereo partly drawn) [Compound 35, α-N-(1-Methyl-2-(1-carboxy-ethoxycarbonyl)vinyl]-L-arginine]
[2]
  Blood glucose response (6 I.U.): 20-30%
  Time course: Lowest level: 30 to 60 min
  Time course: Onset: 15 min
  Time course: Return to pre-medication level: 120 min

## CC(=CC(=O)OCC(O)CO)NCC(=O)[O-].[Na+] (centres unmarked) [Compound 38, N-[1-Methyl-2-(2,3-dihydroxypropoxycarbonyl)vinyl]glycine sodium salt]
[2]
  Blood glucose response (6 I.U.): 45-55%
  Time course: Lowest level: 45 to 60 min
  Time course: Onset: 15 min
  Time course: Return to pre-medication level: 150 min
